Measurements as given in US9707305B2, “Formulas for diagnosing and treating hormone-dependent cancers and cancers of the organs responsible for steroid hormone synthesis” (Commissariat à l'énergie atomique et aux énergies …, priority 2011, dated 2017).

Columns and labels:
[1] = Biodistribution of the mixture of three free tracers (not formulated as nano-emulsion), comparative; assay type: in vivo; conditions: FVB female mouse
Procedure: (§1) In the following examples, the radioactivity was counted with the TRiCarb Counter (Ref: Packard, Liquid Scintillation Analyzers; Models 2200CA).
(§2) Fluobeam 700 (Fluoptics) is the apparatus with which the whole of the organs from the biodistribution were analyzed in fluorescence as well as the one with which the biodistribution kinetics of the nano-emulsions were established in vivo. This imaging system allows viewing of the fluorescence in spectral bands from 700 to 850 nm for a 650 nm excitation. The apparatus consists of an electric case containing the laser of class 3B, its power supply and an optical head containing the CCD camera.
(§3) As a comparison, a mixture of three tracers ([3H]CHE, [14C]CO and DiD) (not formulated as a nano-emulsion) was injected in order to observe the distribution of the tracers in the absence of droplets being used as a distribution carrier.

[2] = Biodistribution of the nano-emulsion of Example 1.1 (radioactivity and fluorescence per organ); assay type: in vivo
Procedure: as §1, §2
as §3, with “The nano-emulsions of Example 1 were injected into FVB female and male mice. As” for “As”
Tables 6 to 14 provide the biodistribution results of each tracer ([3H]CHE, [14C]CO and DiD) expressed as a percentage of the dose injected per gram of tissue (or [3H]CHE and [14C]CO) or as fluorescence intensity (for DiD) depending on the organ of the mouse, 15 minutes (Table 6), 2 hours (Table 7), 4 hours (Table 8), 6 hours (Table 9), 16 hours (Table 10), 24 hours (Table 11), 72 hours (Table 12), 120 hours (Table 13) and 168 hours (Table 14), after injection into an FVB female mouse of the nano-emulsion of Example 1.1. (nano-emulsion according to the invention comprising the three tracers ([3H]CHE, [14C]CO and DiD).

[3] = 2 h after injection of free tracers (not nano-emulsion)
[4] = 6 h after injection of free tracers (not nano-emulsion)
[5] = 16 h after injection of free tracers (not nano-emulsion)
[6] = 24 h after injection of free tracers (not nano-emulsion)
[7] = 15 min after injection of nano-emulsion of Example 1.1, FVB female mouse
[8] = 2 h after injection of nano-emulsion of Example 1.1, FVB female mouse

In the case of `CCCCCCCC/C=C\CCCCCCC[14C](=O)O[C@H]1CC[C@@]2(C)C(=CC[C@H]3[C@@H]4CC[C@H]([C@H](C)CCCC(C)C)[C@@]4(C)CC[C@@H]32)C1` [[14C]CO, cholesteryl oleate], the “biodistribution, Adrenal glands (MEAN)” value [1, 3] was 3.25 % of injected dose per gram of, the “biodistribution, Brain (MEAN)” value [1, 3] was 0.23 % of injected dose per gram of and the “biodistribution, Fat (MEAN)” value [1, 3] was 0.69 % of injected dose per gram of. For the same compound, the “biodistribution, Heart (MEAN)” value [1, 3] was 0.59 % of injected dose per gram of, the “biodistribution, Intestine (MEAN)” value [1, 3] was 0.76 % of injected dose per gram of and the “biodistribution, Kidney (MEAN)” value [1, 3] was 0.89 % of injected dose per gram of. For the same compound, the “biodistribution, Liver (MEAN)” value [1, 3] was 4.79 % of injected dose per gram of, the “biodistribution, Lung (MEAN)” value [1, 3] was 72.86 % of injected dose per gram of and the “biodistribution, Muscle (MEAN)” value [1, 3] was 0.38 % of injected dose per gram of. For the same compound, the “biodistribution, Ovary (MEAN)” value [1, 3] was 1.57 % of injected dose per gram of, the “biodistribution, Pancreas (MEAN)” value [1, 3] was 0.47 % of injected dose per gram of and the “biodistribution, Salivary gland (MEAN)” value [1, 3] was 0.74 % of injected dose per gram of. For the same compound, the “biodistribution, Spleen (MEAN)” value [1, 3] was 3.65 % of injected dose per gram of, the “biodistribution, Uterus (MEAN)” value [1, 3] was 0.49 % of injected dose per gram of and the “biodistribution, Adrenal glands (MEAN)” value [1, 4] was 3.56 % of injected dose per gram of. The “biodistribution, Brain (MEAN)” value [1, 4] was 0.26 % of injected dose per gram of, the “biodistribution, Fat (MEAN)” value [1, 4] was 1.05 % of injected dose per gram of and the “biodistribution, Heart (MEAN)” value [1, 4] was 1.21 % of injected dose per gram of. The “biodistribution, Intestine (MEAN)” value [1, 4] was 1.21 % of injected dose per gram of, the “biodistribution, Kidney (MEAN)” value [1, 4] was 1.36 % of injected dose per gram of and the “biodistribution, Liver (MEAN)” value [1, 4] was 5.53 % of injected dose per gram of. For the same compound, the “biodistribution, Lung (MEAN)” value [1, 4] was 142.66 % of injected dose per gram of, the “biodistribution, Muscle (MEAN)” value [1, 4] was 0.53 % of injected dose per gram of and the “biodistribution, Ovary (MEAN)” value [1, 4] was 2.12 % of injected dose per gram of. The “biodistribution, Pancreas (MEAN)” value [1, 4] was 0.76 % of injected dose per gram of, the “biodistribution, Salivary gland (MEAN)” value [1, 4] was 1.15 % of injected dose per gram of and the “biodistribution, Spleen (MEAN)” value [1, 4] was 3.53 % of injected dose per gram of. For the same compound, the “biodistribution, Uterus (MEAN)” value [1, 4] was 0.46 % of injected dose per gram of, the “biodistribution, Adrenal gland (MEAN)” value [1, 5] was 4.24 % of injected dose per gram of and the “biodistribution, Brain (MEAN)” value [1, 5] was 0.30 % of injected dose per gram of. For the same compound, the “biodistribution, Fat (MEAN)” value [1, 5] was 1.39 % of injected dose per gram of, the “biodistribution, Heart (MEAN)” value [1, 5] was 1.87 % of injected dose per gram of and the “biodistribution, Intestine (MEAN)” value [1, 5] was 1.09 % of injected dose per gram of. For the same compound, the “biodistribution, Kidney (MEAN)” value [1, 5] was 1.82 % of injected dose per gram of, the “biodistribution, Liver (MEAN)” value [1, 5] was 11.86 % of injected dose per gram of and the “biodistribution, Lung (MEAN)” value [1, 5] was 261.87 % of injected dose per gram of. The “biodistribution, Muscle (MEAN)” value [1, 5] was 0.43 % of injected dose per gram of, the “biodistribution, Ovary (MEAN)” value [1, 5] was 1.64 % of injected dose per gram of and the “biodistribution, Pancreas (MEAN)” value [1, 5] was 1.00 % of injected dose per gram of. The “biodistribution, Salivary gland (MEAN)” value [1, 5] was 1.29 % of injected dose per gram of, the “biodistribution, Spleen (MEAN)” value [1, 5] was 5.32 % of injected dose per gram of and the “biodistribution, Uterus (MEAN)” value [1, 5] was 1.00 % of injected dose per gram of. The “biodistribution, Adrenal gland (MEAN)” value [1, 6] was 2.60 % of injected dose per gram of, the “biodistribution, Brain (MEAN)” value [1, 6] was 0.22 % of injected dose per gram of and the “biodistribution, Fat (MEAN)” value [1, 6] was 1.64 % of injected dose per gram of. The “biodistribution, Heart (MEAN)” value [1, 6] was 0.82 % of injected dose per gram of, the “biodistribution, Intestine (MEAN)” value [1, 6] was 0.81 % of injected dose per gram of and the “biodistribution, Kidney (MEAN)” value [1, 6] was 1.02 % of injected dose per gram of. For the same compound, the “biodistribution, Liver (MEAN)” value [1, 6] was 3.29 % of injected dose per gram of, the “biodistribution, Lung (MEAN)” value [1, 6] was 29.91 % of injected dose per gram of and the “biodistribution, Muscle (MEAN)” value [1, 6] was 0.79 % of injected dose per gram of. The “biodistribution, Ovary (MEAN)” value [1, 6] was 1.40 % of injected dose per gram of, the “biodistribution, Pancreas (MEAN)” value [1, 6] was 0.95 % of injected dose per gram of and the “biodistribution, Salivary gland (MEAN)” value [1, 6] was 0.86 % of injected dose per gram of. The “biodistribution, Spleen (MEAN)” value [1, 6] was 2.27 % of injected dose per gram of, the “biodistribution, Uterus (MEAN)” value [1, 6] was 0.62 % of injected dose per gram of and the “accumulation of the free radioactive tracers in the lungs” value ([1]; Tables 2 to 5 (2 to 24 h), free tracers) was “strong accumulation”. For the same compound, the “biodistribution, Adrenal glands (MEAN)” value [2, 7] was 10.18 % of injected dose per gram of, the “biodistribution, Brain (MEAN)” value [2, 7] was 0.499 % of injected dose per gram of and the “biodistribution, Fat (MEAN)” value [2, 7] was 1.15 % of injected dose per gram of. The “biodistribution, Heart (MEAN)” value [2, 7] was 8.676 % of injected dose per gram of, the “biodistribution, Intestine (MEAN)” value [2, 7] was 1.75 % of injected dose per gram of and the “biodistribution, Kidney (MEAN)” value [2, 7] was 4.20 % of injected dose per gram of. For the same compound, the “biodistribution, Liver (MEAN)” value [2, 7] was 8.86 % of injected dose per gram of, the “biodistribution, Lung (MEAN)” value [2, 7] was 3.92 % of injected dose per gram of and the “biodistribution, Muscle (MEAN)” value [2, 7] was 0.744 % of injected dose per gram of. The “biodistribution, Ovary (MEAN)” value [2, 7] was 4.59 % of injected dose per gram of, the “biodistribution, Pancreas (MEAN)” value [2, 7] was 1.262 % of injected dose per gram of and the “biodistribution, Salivary glands (MEAN)” value [2, 7] was 1.057 % of injected dose per gram of. The “biodistribution, Spleen (MEAN)” value [2, 7] was 3.58 % of injected dose per gram of, the “biodistribution, Uterus (MEAN)” value [2, 7] was 0.93 % of injected dose per gram of and the “biodistribution, Adrenal glands (MEAN)” value [2, 8] was 18.50 % of injected dose per gram of. The “biodistribution, Brain (MEAN)” value [2, 8] was 0.29 % of injected dose per gram of, the “biodistribution, Fat (MEAN)” value [2, 8] was 3.85 % of injected dose per gram of and the “biodistribution, Heart (MEAN)” value [2, 8] was 4.41 % of injected dose per gram of. For the same compound, the “biodistribution, Intestine (MEAN)” value [2, 8] was 2.33 % of injected dose per gram of, the “biodistribution, Kidneys (MEAN)” value [2, 8] was 3.91 % of injected dose per gram of and the “biodistribution, Liver (MEAN)” value [2, 8] was 19.41 % of injected dose per gram of.
